Assay results: US6610744B2, “Methods of treatment with compounds having RARα receptor specific or selective activity” (Allergan, Inc., priority 1995, dated 2003)

Assays:
RXRβ = target: T1, RXRβ (Homo sapiens, UniProt P28702); experiment: Ligand binding assay, RXRβ
T1 construct: made in house; host or cells: Baculovirus expression (insect cell extract)
T1 sequence (P28702 1-533): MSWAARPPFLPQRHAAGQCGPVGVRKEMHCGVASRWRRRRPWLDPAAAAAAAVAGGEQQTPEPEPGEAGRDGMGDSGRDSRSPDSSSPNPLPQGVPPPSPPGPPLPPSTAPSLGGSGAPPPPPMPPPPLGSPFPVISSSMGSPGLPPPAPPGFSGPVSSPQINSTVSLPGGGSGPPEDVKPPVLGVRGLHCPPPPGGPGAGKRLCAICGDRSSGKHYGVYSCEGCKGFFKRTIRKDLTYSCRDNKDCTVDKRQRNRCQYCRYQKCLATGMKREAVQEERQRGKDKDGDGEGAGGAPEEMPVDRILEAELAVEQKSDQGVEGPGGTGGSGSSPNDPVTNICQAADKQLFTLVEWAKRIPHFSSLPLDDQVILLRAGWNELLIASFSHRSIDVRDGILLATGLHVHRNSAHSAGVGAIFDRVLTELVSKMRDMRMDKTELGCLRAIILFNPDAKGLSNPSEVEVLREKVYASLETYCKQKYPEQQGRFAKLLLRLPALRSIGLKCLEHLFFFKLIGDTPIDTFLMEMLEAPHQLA
Protocol: (§1) All binding assays were performed in a similar fashion. All six receptor types were derived from the expressed receptor type (RARα, β, Γ and RXRα, β, Γ) expressed in Baculovirus. Stock solutions of all compounds were prepared as 10 mM ethanol solutions and serial dilutions carried out into 1:1 DMSO; ethanol. Assay buffers consisted of the following for all six receptor assays: 8% glycerol, 120 mM KCl 8 mM Tris, 5 mM CHAPS 4 mM DTT and 0.24 mM PMSF, pH-7.4@ room temperature.
(§2) All receptor binding assays were performed in the same manner. The final assay volume was 250 μl and contained from 10-40 μg of extract protein depending on receptor being assayed along with 5 nM of [^3H] all-trans retinoic acid or 10 nM [^3H] 9-cis retinoic acid and varying concentrations of competing ligand at concentrations that ranged from 0-10^−5 M. The assays were formatted for a 96 well minitube system. Incubations were carried out at 4° C. until equilibrium was achieved. Non-specific binding was defined as that binding remaining in the presence of 1000 nM of the appropriate unlabeled retinoic acid isomer. At the end of the incubation period, 50 μl of 6.25% hydroxyapitite was added in the appropriate wash buffer. The wash buffer consisted of 100 mM KCl, 10 mM Tris and either 5 mM CHAPS (RXRα, β, Γ) or 0.5% Triton X-100 (RARα, β, Γ). The mixture was vortexed and incubated for 10 minutes at 4° C., centrifuged and the supernatant removed. The hydroxyapitite was washed three more times with the appropriate wash buffer. The receptor-ligand complex was adsorbed by the hydroxyapitite. The amount of receptor-ligand complex was determined by liquid scintillation counting of hydroxyapitite pellet.
(§3) After correcting for non-specific binding, IC50 values were determined. […] The IC50 value was determined graphically from a loglogit plot of the data. The […] were determined by application of the Cheng-Prussof equation to the IC50 values, the labeled ligand concentration and the Kd of the labeled ligand.
(§4) The results of ligand binding assay are expressed in Kd numbers. (See Cheng et al. Biochemical Pharmacology Vol. 22 pp 3099-3108, expressly incorporated herein by reference.)

RXRα = target: T2, RXRα (Homo sapiens, UniProt P19793); experiment: Ligand binding assay, RXRα
T2 construct: made in house; host or cells: Baculovirus expression (insect cell extract)
T2 sequence (P19793 1-462): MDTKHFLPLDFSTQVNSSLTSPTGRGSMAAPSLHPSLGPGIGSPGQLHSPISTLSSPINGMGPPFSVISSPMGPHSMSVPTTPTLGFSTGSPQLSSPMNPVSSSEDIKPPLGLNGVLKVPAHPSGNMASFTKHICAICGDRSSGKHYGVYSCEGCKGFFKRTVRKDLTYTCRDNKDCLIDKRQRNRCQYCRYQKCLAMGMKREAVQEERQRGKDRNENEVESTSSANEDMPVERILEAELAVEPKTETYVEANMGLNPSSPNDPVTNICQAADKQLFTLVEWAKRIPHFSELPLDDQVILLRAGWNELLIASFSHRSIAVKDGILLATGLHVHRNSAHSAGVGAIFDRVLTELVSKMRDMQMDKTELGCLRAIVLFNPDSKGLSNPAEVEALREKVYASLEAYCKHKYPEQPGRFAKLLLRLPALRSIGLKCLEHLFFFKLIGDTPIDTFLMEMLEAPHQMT
Protocol: as §1, §2, §3, §4

RXRΓ = target: T3, RXRΓ (Homo sapiens, UniProt P48443); experiment: Ligand binding assay, RXRΓ
T3 construct: made in house; host or cells: Baculovirus expression (insect cell extract)
T3 sequence (P48443 1-463): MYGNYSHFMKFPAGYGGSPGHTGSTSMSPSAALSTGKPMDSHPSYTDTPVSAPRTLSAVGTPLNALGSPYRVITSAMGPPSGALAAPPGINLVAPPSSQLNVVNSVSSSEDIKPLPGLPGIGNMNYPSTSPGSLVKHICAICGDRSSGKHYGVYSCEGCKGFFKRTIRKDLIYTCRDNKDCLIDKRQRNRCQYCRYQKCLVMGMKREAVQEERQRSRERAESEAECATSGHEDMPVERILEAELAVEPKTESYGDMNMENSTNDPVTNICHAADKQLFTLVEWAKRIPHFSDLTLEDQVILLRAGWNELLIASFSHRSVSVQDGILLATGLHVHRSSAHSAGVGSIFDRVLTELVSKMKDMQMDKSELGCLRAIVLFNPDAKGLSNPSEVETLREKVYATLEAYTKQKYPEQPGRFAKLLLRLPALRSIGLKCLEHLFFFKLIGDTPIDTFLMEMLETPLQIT
Protocol: as §1, §2, §3, §4

RARα = target: T4, RARα (Homo sapiens, UniProt P10276); experiment: Ligand binding assay, RARα
T4 construct: made in house; host or cells: Baculovirus expression (insect cell extract)
T4 sequence (P10276 1-462): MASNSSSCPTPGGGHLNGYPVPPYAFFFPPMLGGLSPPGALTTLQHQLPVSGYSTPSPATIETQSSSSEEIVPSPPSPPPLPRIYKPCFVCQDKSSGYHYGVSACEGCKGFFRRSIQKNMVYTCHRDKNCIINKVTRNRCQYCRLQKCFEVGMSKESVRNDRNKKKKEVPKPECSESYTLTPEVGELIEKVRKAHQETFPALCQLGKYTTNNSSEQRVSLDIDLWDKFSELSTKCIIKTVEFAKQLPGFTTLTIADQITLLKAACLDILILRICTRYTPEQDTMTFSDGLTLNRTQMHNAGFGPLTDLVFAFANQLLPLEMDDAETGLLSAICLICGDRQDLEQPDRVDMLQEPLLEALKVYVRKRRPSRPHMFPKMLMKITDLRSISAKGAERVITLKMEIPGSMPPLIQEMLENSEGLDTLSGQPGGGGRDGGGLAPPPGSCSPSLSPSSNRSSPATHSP
Protocol: as §1, §2, §3
The results of ligand binding assay are expressed in Kd numbers. […]

RARΓ = target: T5, RARΓ (Homo sapiens, UniProt P13631); experiment: Ligand binding assay, RARΓ
T5 construct: made in house; host or cells: Baculovirus expression (insect cell extract)
T5 sequence (P13631 1-454): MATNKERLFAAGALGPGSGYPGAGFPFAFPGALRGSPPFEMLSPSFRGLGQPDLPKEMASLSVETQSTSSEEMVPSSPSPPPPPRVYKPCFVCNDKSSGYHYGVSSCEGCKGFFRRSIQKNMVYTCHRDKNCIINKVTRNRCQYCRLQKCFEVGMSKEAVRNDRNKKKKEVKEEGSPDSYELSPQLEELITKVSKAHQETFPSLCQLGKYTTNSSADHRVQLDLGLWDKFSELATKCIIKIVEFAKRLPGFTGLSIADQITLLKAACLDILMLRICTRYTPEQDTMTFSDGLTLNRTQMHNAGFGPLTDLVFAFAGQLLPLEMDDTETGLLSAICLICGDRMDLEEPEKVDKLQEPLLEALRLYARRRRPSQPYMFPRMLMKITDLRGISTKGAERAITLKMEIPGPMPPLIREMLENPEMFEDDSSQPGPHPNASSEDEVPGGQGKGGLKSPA
Protocol: as §1, §2, §3, §4

[1] = system: AML-193 cells (acute monocytic leukemia); experiment: AML 193 cell culture assay (3H-thymidine incorporation); format: cell-based, human; details: FIG. 2; low concentrations
Protocol: All trans-retinoic acid (t-RA) (Sigma Chemicals Co., St. Louis, Mo.) was stored at −70° C. Prior to each experiment the compound was dissolved in 100% ethanol at 1 mM and diluted in culture medium immediately before use. All experiments were performed in subdued light. Controls were assayed using the same concentration of ethanol as present in the experimental plates and this concentration of diluent had no effect in either assay.
AML-193 was established from the blast cells classified as M5 Acute Monocyte Leukemia. The growth factor, […] (GM-CSF) was required to establish this cell line and growth factors are necessary for its continuous proliferation in chemically defined medium. AML-193 cells were grown and maintained in Iscove's modified Dulbecco's medium supplemented with 10% fetal bovine serum, glutamine and antibiotics with 5 μg/ml insulin (Sigma Chemical Co.) and 2 ng/ml rh GM-CSF (R and D Systems). The cells were diluted to a concentration of 3×10^5/ml twice a week.
AML-193 cells were plated in a 96 well round bottom microtiter plate (Costar) at a density of 1,000 cells/well. To appropriate wells, retinoid test compounds were added at the final concentrations indicated for a final volume of 150 μl/well. The plates were incubated for 96 hours at 37° C. in a humidified atmosphere of 5% CO2 in air. Subsequently, 1 μCi of [5′-^3H]-thymidine (Amersham, U.K., 43 Ci/mmol specific activity) in 25 μl culture medium was added to each well and the cells were incubated for an additional 6 hours.
The cell lines were then processed as follows: the cellular DNA was precipitated with 10% trichloroacetic acid onto glass fiber filter mats using a SKATRON multi-well cell harvester (Skatron Instruments, Sterling Va.). Radioactivity incorporated into DNA, as a direct measurement of cell growth, was measured by liquid scintillation counting. The numbers represent the mean disintegrations per minute of incorporated thymidine from triplicate wells±SEM.

RARβ = target: T6, RARβ (Homo sapiens, UniProt P10826); experiment: Ligand binding assay, RARβ
T6 construct: made in house; host or cells: Baculovirus expression (insect cell extract)
T6 sequence (P10826 1-455): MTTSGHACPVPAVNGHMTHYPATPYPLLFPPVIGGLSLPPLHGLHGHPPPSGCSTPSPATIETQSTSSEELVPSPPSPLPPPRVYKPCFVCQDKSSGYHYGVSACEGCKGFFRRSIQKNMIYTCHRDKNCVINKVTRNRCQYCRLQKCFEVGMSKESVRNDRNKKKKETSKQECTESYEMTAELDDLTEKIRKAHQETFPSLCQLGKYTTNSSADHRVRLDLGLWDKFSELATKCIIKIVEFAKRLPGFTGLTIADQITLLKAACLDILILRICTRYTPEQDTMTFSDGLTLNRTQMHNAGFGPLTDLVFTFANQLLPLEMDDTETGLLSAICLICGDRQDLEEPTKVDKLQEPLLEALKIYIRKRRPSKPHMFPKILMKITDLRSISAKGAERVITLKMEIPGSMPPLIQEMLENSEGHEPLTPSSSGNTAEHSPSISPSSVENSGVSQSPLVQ
Protocol: as §1, §2, §3, §4

Kd (RXRβ)	Kd (RXRα)	Kd (RXRΓ)	Kd (RARΓ)	Kd (RARβ)	Molecule	Kd (RARα)	growth of AML 193 cells at low concentrations [1]
			77 nM	34 nM	CC1(C)CC=C(C#N)c2cc(C#Cc3ccc(C(=O)O)cc3)ccc21 [AGN 193090, 4-[(8-cyano-5,6-dihydro-5,5-dimethylnaphth-2-yl)ethynyl]benzoic acid, reference compound]	109 nM	do not inhibit but rather at these low concentrations even stimulate such cell growth
> 1000 nM	> 1000 nM	> 1000 nM	> 1000 nM	> 1000 nM	CC(C)(C)c1cc(C(=O)Nc2cc(F)c(C(=O)O)c(F)c2)cc(C(C)(C)C)n1 [Compound 50]		
> 1000 nM	> 1000 nM	> 1000 nM	> 1000 nM	> 1000 nM	CC(C)(C)c1cc(C(=O)Nc2cc(F)c(C(=O)O)c(F)c2)cc(C(C)(C)C)c1 [Compound 52]		
> 1000 nM	> 1000 nM	> 1000 nM	> 1000 nM	> 1000 nM	CC(C)(C)c1cc(C(=O)Nc2ccc(C(=O)O)c([N+](=O)[O-])c2)cc(C(C)(C)C)n1 [Compound 54]		

The next lines start with the molecule.

Molecule	Kd (RXRβ)	Kd (RXRα)	Kd (RXRΓ)	Kd (RARΓ)	Kd (RARβ)	Kd (RARα)	growth of AML 193 cells at low concentrations [1]
2-Fluoro-4-[(3′,5′-di-t-butyl)phenylcarbamoyl]benzoic acid [Compound 46]	> 1000 nM	> 1000 nM	> 1000 nM				
CC(C)(C)C=C1CCC(C)(C)c2ccc(C#Cc3ccc(C(=O)O)cc3)cc21 [AGN 193459, 4-[(5,6-dihydro-5,5-dimethylnaphth-7(6H)-8-(1-2,2-dimethylpropylidene)naphth-2-yl)ethynyl]benzoic acid, reference compound]				7 nM	2 nM	6 nM	do not inhibit but rather at these low concentrations even stimulate such cell growth
CC1(C)CCC(C)(C)c2c1cc(C(=O)Nc1ccc(C(=O)O)c(F)c1)c(O)c2Br [Compound 30]						< 3 nM	
